This note sets out measurements from US20140135526A1, “COMPOSITIONS AND METHODS FOR 3-HYDROXYPROPIONATE BIO-PRODUCTION FROM BIOMASS” (OPX Biotechnologies, Inc., priority 2007, published 2014).

Each structure is given as a SMILES string. Bounds are passed on as bounds.

The subject of experiment [1] is AB354 (ΔpanD) + pKK223-kgd. In kind it is cell-based, E. coli. The conditions noted are these: M9 minimal media plates with threonine, leucine, thiamine; 37 C overnight; 10 g/L beta-alanine, 1 mM IPTG, 0.2 g/L putrescine, 200 mg/L ampicillin where indicated. Here is the method:
(§1) E. coli AB354 (Δ panD) was transformed with the vector controls, pKK223, pKK223-Cterm-5×his (‘5×His’ disclosed as SEQ ID NO: 24), as well as the test vectors pKK223-mcr and pKK223-Cterm-5×His-kgd (‘5×His’ disclosed as SEQ ID NO: 24), according to standard methods described below. Each of the strains were grown overnight in LB rich media supplemented with 200 mg/L ampicillin (according to standard protocols). Following overnight growth, cells twice were harvested by centrifugation and washed by resuspension in M9 minimal media (standard protocol), diluted 1:10,000 and plated on M9 minimal media plates with 0.05 g/L threonine, 0.1 g/L leucine, 0.067 g/L thiamine, with the additional appropriate supplements, where indicated at the following concentrations (10 g/L beta-alanine (Sigma Aldrich, St. Louis, Mo.), 1 mM Isopropyl β-D-1-thiogalactopyranoside (Thermo Fisher Scientific, Fairlawn, N.J.), 0.2 g/L putrescine (MPBiomedicals, Santa Ana, Calif.), 200 mg/L ampicillin (Research Products International Corp., Mt. Prospect, Ill.) After plating, agarose plates were incubated at 37 C overnight by standard methods. […] A plus (+) indicates growth on a plate, minus (−) indicates no growth. […] Putrescine is known to induce the expression of gamma-aminobutyrate transaminase in E. coli. This enzyme has been shown in some species including Rattus norvegicus to also have beta-alanine aminotransferase activity.

For experiment [2], the system named is AB354 (ΔpanD) + pKK223-mer. The experiment is classed as cell-based, E. coli. The conditions noted are these: M9 minimal media plates with threonine, leucine, thiamine; 37 C overnight; 10 g/L beta-alanine, 1 mM IPTG, 0.2 g/L putrescine, 200 mg/L ampicillin where indicated. As for the experimental part: as §1
For the next experiment, the system named is AB354 (ΔpanD) + pKK223. The experiment is classed as cell-based, E. coli. The conditions noted are these: M9 minimal media plates with threonine, leucine, thiamine; 37 C overnight; 10 g/L beta-alanine, 1 mM IPTG, 0.2 g/L putrescine, 200 mg/L ampicillin where indicated. Here is the method: as §1
In another experiment the test system is AB354 (ΔpanD). The experiment is classed as cell-based, E. coli. The conditions noted are these: M9 minimal media plates with threonine, leucine, thiamine; 37 C overnight; 10 g/L beta-alanine, 1 mM IPTG, 0.2 g/L putrescine, 200 mg/L ampicillin where indicated. Here is the method: as §1
The next experiment has as its system K12. The experiment is classed as cell-based, E. coli. The conditions noted are these: M9 minimal media plates with threonine, leucine, thiamine; 37 C overnight; 10 g/L beta-alanine, 1 mM IPTG, 0.2 g/L putrescine, 200 mg/L ampicillin where indicated. Here is the method: as §1
For another experiment, the system named is E. coli. Description: Alleviation of 3-HP toxicity by adding downstream products of the chorismate superpathway. The experiment is classed as cell-based. The conditions noted are these: added as supplement in the presence of 3-HP. From the text: The data shown in FIG. 4 depict identification of the chorismate superpathway as a target of 3-HP toxicity. In some embodiments, toxicity is alleviated by several processes.

A further experiment deals with wild type E. coli K12. Description: 3-HP toxicity (growth inhibition) in E. coli. The experiment is classed as cell-based. The text has this:
Previous attempts to produce 3-HP via biological pathways provide product titers which have been low and these processes have required the use of expensive, rich media. Both of these factors limit commercial feasibility and profitability. The use of rich media was necessary due to the toxicity of 3-HP when fermented with the more economical minimal media. […] Further, the fermentative pathways reported by other investigators have not addressed and resolved the toxicity mechanisms of 3-HP to the host organisms. Further to issues related to commodity chemical production, which largely relies on petroleum-based starting materials, there is an increasing need to reduce the domestic usage of petroleum and natural gas. The numerous motivating factors for this increasing need include, but are not limited to: pollutant reduction (such as greenhouse gases), environmental protection, and reducing the dependence on foreign oil. These issues not only impact fuel markets, but also the markets of numerous other products that are currently derived from oil. Biorefining promises the development of efficient biological processes allowing for the conversion of renewable sources of carbon and energy into large volume commodity chemicals.
FIG. 2 depicts 3-hydroxpropionate toxicity in E. coli K12. The minimum concentration of 3-HP that is required to inhibit visible growth after 24 hrs in minimal media is shown for wild type E. coli K12 grown in both minimal media and rich media which contains more complex nutrients.
Severe growth inhibition has been observed for extracellular 3-HP levels as low as 10 g/L in minimal media (pH 7.0), which limits the economic feasibility of 3-HP production as a platform chemical. […] However toxicity at levels below required titers (100 g/L) are still observed in rich media.

Consider `NCCC(=O)O` [β-alanine, beta-alanine], for which, in experiment [1], the “growth on plate, strain AB354 (ΔpanD) + pKK223-kgd” value is “+”. The “growth on plate, strain AB354 (ΔpanD) + pKK223-mer” value in experiment [2] is given as “+”. Also, the “growth on plate, strain AB354 (ΔpanD) + pKK223” value in the experiment on AB354 (ΔpanD) + pKK223 was “+”. The “growth on plate, strain AB354 (ΔpanD)” value in the experiment with AB354 (ΔpanD) is “+”. The “growth on plate, strain K12” value in the experiment on K12 is recorded as “+”.

Regarding `O=C(O)c1cccc(O)c1O` [2,3-dihydroxybenzoate], in the experiment with E. coli, the “effect of addition on 3-HP toxicity” value is on record as “alleviate toxicity to a degree”.

For the molecule `O=C(O)CCO` [3-HP, 3-hydroxypropionate], the “extracellular 3-HP level at which severe growth inhibition is observed” value with wild type E. coli K12 (minimal media (pH 7.0)) is given as at least 10 g/L. In addition, in the experiment with wild type E. coli K12 (rich media), the “3-HP level at which toxicity is still observed” value is below 100 g/L and the “product titer at which toxic effects are observed, relative to desired titers” value is on record as “approximately two times lower than desired titers”. For the same molecule, in the experiment with wild type E. coli K12 (wild type E. coli, minimal media), the “3-HP level at which metabolic activity is significantly inhibited, relative to the approximate 100 g/L titer” value was 5-10 times lower.

`Nc1ccc(C(=O)O)cc1` [para-aminobenzoate]: the “effect of addition on 3-HP toxicity” value with E. coli is listed as “alleviate toxicity to a degree”.

With `O=C(O)c1ccc(O)cc1` [para-hydroxy-benzoate], the “effect of addition on 3-HP toxicity” value with E. coli is given as “alleviate toxicity to a degree”.

As to `N[C@@H](Cc1ccccc1)C(=O)O` [phenylalanine], the “effect of addition on 3-HP toxicity” value with E. coli is on record as “alleviate toxicity to a degree”.

Turning to `N[C@@H](Cc1ccc(O)cc1)C(=O)O` [tyrosine], in the experiment on E. coli, the “effect of addition on 3-HP toxicity” value was “alleviate toxicity to a degree”.

As to `CC1(C)S[C@@H]2[C@H](NC(=O)[C@H](N)c3ccccc3)C(=O)N2[C@H]1C(=O)O` [Amp, ampicillin], the “growth on plate, strain AB354 (ΔpanD) + pKK223-kgd” value in experiment [1] is given as “−”. In experiment [2], the “growth on plate, strain AB354 (ΔpanD) + pKK223-mer” value is recorded as “−”. Besides, in the experiment with AB354 (ΔpanD) + pKK223, the “growth on plate, strain AB354 (ΔpanD) + pKK223” value was “−”. In the experiment with AB354 (ΔpanD), the “growth on plate, strain AB354 (ΔpanD)” value is reported as “−”. The “growth on plate, strain K12” value in the experiment with K12 is given as “−”.
